Laboratory results as given in patent US10683297B2 (Sunshine Lake Pharma Co., Ltd., priority 2017, dated 2020).

Experiments:
Type in all cases: biochemical
Details in all cases: [γ-33P-ATP] 10 μM or KM values; 40 minutes at room temperature
JAK2 (h) = biological target: T1, JAK2 (h) (Homo sapiens, UniProt O60674); experiment: JAK2 (h) kinase assay
T1 construct: purchased Millipore UK Ltd (assays performed there as a service)
Method: Kinase assays can be performed by measurement of incorporation of γ-^33P ATP into immobilized myelin basic protein (MBP). High binding white 384 well plates (Greiner) are coated with MBP (Sigma # M-1891) by incubation of 60 μL well of 20 μg/mL MBP in Tris-buffered saline (TBS; 50 mM Tris pH 8.0, 138 mM NaCl, 2.7 mM KCl) for 24 h at 4° C. Plates are washed 3× with 100 μL TBS. Kinase reactions are carried out in a total volume of 34 μL in kinase buffer (according to the need to make, for example, 5 mM Hepes pH 7.6, 15 mM NaCl, 0.01% bovine gamma globulin (Sigma #1-5506), 10 mM MgCl2, 1 mM DTT, 0.02% TritonX-100). Compound dilutions are performed in DMSO and added to assay wells to a final DMSO concentration of 1%. Each data point is measured in duplicate, and at least two duplicate assays are performed for each individual compound determination. Enzyme is added to final concentrations of 10 nM or 20 nM, for example. A mixture of unlabeled ATP and γ-^33P ATP is added to start the reaction (2×10^6 cpm of γ-^33P ATP per well (3000 Ci/mmole) and 10 μM unlabeled ATP, typically. The reactions are carried out for 1 hour at room temperature with shaking. Plates are washed 7× with TBS, followed by the addition of 50 μL well scintillation fluid (Wallac). Plates are read using a Wallac Trilux counter. This is only one format of such assays; various other formats are possible, as known to one skilled in the art.
(§1) The above assay procedure can be used to determine the IC50 for inhibition and/or the inhibition constant, Ki. […] The IC50 value is estimated by preparing a 10 point curve using a ½ log dilution series (for example, a typical curve may be prepared using the following compound concentrations: 3 μM, 1 μM, 0.3 μM, 0.1 μM, 0.03 μM, 0.01 μM, 0.003 μM, 0.001 μM, 0.0003 μM and 0 μM).
JAK2 (h) is incubated with 8 mM MOPS pH 7.0, 0.2 mM EDTA, 100 μM […], 10 mM MgAcetate and [γ-^33P-ATP] […] The reaction is initiated by the addition of the MgATP mix. After incubation for 40 minutes at room temperature, the reaction is stopped by the addition of 3% phosphoric acid solution. 10 μL of the reaction is then spotted onto a P30 filtermat and washed three times for 5 minutes in 75 mM phosphoric acid and once in methanol prior to drying and scintillation counting.
(§2) The kinase assays described herein were performed at Millipore UK Ltd, Dundee Technology Park, Dundee DD2 1SW, UK.

Aurora-A (h) = biological target: T2, Aurora-A (h) (Homo sapiens, UniProt O14965); experiment: Aurora-A (h) kinase assay
T2 construct: purchased Millipore UK Ltd (assays performed there as a service)
T2 sequence (O14965 1-403): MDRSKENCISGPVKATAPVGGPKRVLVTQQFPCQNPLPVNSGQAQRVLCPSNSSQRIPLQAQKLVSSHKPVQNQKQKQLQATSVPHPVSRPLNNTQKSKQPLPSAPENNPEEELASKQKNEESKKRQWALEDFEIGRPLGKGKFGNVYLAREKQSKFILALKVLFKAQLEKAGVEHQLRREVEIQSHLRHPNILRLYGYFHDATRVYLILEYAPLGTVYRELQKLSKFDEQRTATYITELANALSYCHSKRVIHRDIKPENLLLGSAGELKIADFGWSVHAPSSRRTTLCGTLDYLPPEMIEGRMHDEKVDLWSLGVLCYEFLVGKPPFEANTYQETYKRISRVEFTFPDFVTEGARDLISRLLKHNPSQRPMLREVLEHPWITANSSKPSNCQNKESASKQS
Method: as §1
Aurora-A (h) is incubated with 8 mM MOPS pH 7.0, 0.2 mM EDTA, 200 μM LRRASLG (Kemptide), 10 mM MgAcetate and [γ-^33P-ATP] […] The reaction is initiated by the addition of the MgATP mix. After incubation for 40 minutes at room temperature, the reaction is stopped by the addition of 3% phosphoric acid solution. 10 μL of the reaction is then spotted onto a P30 filtermat and washed three times for 5 minutes in 75 mM phosphoric acid and once in methanol prior to drying and scintillation counting.
as §2

Aurora-B (h) = biological target: T3, Aurora-B (h) (Homo sapiens, UniProt Q96GD4); experiment: Aurora-B (h) kinase assay
T3 construct: purchased Millipore UK Ltd (assays performed there as a service)
T3 sequence (Q96GD4 whole entry): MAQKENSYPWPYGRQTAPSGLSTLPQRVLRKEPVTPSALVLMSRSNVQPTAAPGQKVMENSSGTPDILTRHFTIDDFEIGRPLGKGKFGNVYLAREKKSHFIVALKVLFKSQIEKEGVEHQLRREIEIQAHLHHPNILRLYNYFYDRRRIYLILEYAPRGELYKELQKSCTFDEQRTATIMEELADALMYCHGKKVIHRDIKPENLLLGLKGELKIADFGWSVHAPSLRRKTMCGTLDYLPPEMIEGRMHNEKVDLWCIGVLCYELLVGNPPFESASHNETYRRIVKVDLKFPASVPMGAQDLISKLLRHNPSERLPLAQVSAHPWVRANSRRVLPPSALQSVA
Method: as §1
Aurora-B (h) is incubated with 8 mM MOPS pH 7.0, 0.2 mM EDTA, 30 μM […], 10 mM MgAcetate and [γ-^33PATP] […] The reaction is initiated by the addition of the MgATP mix. After incubation for 40 minutes at room temperature, the reaction is stopped by the addition of a 3% phosphoric acid solution. 10 μL of the reaction is then spotted onto a P30 filtermat and washed three times for 5 minutes in 75 mM phosphoric acid and once in methanol prior to drying and scintillation counting.
as §2

T1 sequence (O60674 whole entry): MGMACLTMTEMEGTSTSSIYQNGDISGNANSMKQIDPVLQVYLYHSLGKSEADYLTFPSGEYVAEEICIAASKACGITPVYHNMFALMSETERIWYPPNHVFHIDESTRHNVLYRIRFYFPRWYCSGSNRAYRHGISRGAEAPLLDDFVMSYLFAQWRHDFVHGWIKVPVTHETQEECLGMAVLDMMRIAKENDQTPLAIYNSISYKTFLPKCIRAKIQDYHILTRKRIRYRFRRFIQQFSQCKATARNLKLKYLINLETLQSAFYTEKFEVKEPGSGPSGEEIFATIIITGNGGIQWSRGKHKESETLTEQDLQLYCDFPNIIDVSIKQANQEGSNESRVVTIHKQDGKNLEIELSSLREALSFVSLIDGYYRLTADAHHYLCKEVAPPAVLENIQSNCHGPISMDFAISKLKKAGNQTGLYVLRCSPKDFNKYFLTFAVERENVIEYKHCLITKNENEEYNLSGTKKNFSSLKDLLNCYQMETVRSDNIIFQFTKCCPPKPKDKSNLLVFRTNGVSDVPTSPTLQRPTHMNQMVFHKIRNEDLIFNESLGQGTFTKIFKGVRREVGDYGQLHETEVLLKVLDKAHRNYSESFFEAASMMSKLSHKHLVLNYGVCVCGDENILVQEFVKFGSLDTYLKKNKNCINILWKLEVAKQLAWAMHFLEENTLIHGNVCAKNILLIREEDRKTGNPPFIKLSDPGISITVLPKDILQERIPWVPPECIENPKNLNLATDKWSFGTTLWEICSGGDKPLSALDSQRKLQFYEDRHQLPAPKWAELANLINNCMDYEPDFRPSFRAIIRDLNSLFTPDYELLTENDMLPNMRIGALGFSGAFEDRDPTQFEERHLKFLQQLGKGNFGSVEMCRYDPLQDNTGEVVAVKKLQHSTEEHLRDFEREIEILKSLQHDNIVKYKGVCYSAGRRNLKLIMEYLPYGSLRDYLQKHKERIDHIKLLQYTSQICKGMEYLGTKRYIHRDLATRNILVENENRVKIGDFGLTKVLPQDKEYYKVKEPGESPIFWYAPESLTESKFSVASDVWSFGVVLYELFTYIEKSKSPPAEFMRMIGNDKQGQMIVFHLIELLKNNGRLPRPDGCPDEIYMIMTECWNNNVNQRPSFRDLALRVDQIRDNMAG

IC50 (JAK2 (h)) [nM]	IC50 (Aurora-A (h)) [nM]	IC50 (Aurora-B (h)) [nM]	Compound
10	561	185	CC(C)(O)Cc1nc2cc(Nc3ncc(Cl)c(NC4CCN(c5ccc(C#N)cn5)CC4)n3)ccn2n1 [Example 78, 6-(4-((5-chloro-2-((2-(2-hydroxy-2-methylpropyl)-[1,2,4]triazolo[1,5-a]pyridin-7-yl)amino)pyrimidin-4-yl)amino)piperidin-1-yl)nicotinonitrile]
8	–	184	CC(C)(O)Cc1nnc2cc(Nc3ncc(Cl)c(NC4CCN(c5ccc(C#N)nn5)CC4)n3)ccn12 [Example 75, 6-(4-((5-chloro-2-((3-(2-hydroxy-2-methylpropyl)-[1,2,4]triazolo[4,3-a]pyridin-7-yl)amino)pyrimidin-4-yl)amino)piperidin-1-yl)pyridazine-3-carbonitrile]
8	–	125	CC(C)(O)c1cn2ccc(Nc3ncc(Cl)c(NC4CCN(c5ccc(C#N)cn5)CC4)n3)cc2n1 [Example 70, 6-(4-((5-chloro-2-((2-(2-hydroxypropan-2-yl)imidazo[1,2-a]pyridin-7-yl)amino)pyrimidin-4-yl)amino)piperidin-1-yl)nicotinonitrile]
4	216	216	N#Cc1ccc(N2CCC(Nc3nc(Nc4ccc5c(c4)nnn5CC4CC4)ncc3Cl)CC2)nc1 [Example 60, 6-(4-((5-chloro-2-((1-(cyclopropylmethyl)-1H-benzo[d][1,2,3]triazol-5-yl)amino)pyrimidin-4-yl)amino)piperidin-1-yl)nicotinonitrile]
2	–	102	CCC1CN(c2ccc(C#N)nn2)CCC1Nc1nc(Nc2ccn3c(C)cnc3c2)ncc1Cl (stereo not shown) [Example 3, 6-(4-((5-chloro-2-((3-methylimidazo[1,2-a]pyridin-7-yl)amino)pyrimidin-4-yl)amino)-3-ethylpiperidin-1-yl)pyridazine-3-carbonitrile]
3	–	223	CC(C)(O)c1cnc2cc(Nc3ncc(Cl)c(NC4CCN(c5ccc(C#N)cn5)CC4)n3)ccn12 [Example 68, 6-(4-((5-chloro-2-((3-(2-hydroxypropan-2-yl)imidazo[1,2-a]pyridin-7-yl)amino)pyrimidin-4-yl)amino)piperidin-1-yl)nicotinonitrile]
10	630	–	N#Cc1ccc(N2CCC(Nc3nc(Nc4ccn5c(C(F)F)nnc5c4)ncc3Cl)CC2)nc1 [Example 30, 6-(4-((5-chloro-2-((3-(difluoromethyl)-[1,2,4]triazolo[4,3-a]pyridin-7-yl)amino)pyrimidin-4-yl)amino)piperidin-1-yl)nicotinonitrile]
102	–	–	CC(C)(O)Cc1nc2ccc(Nc3ncc(Cl)c(NC4CCN(c5ccc(C#N)nn5)CC4)n3)cn2n1 [Example 79, 6-(4-((5-chloro-2-((2-(2-hydroxy-2-methylpropyl)-[1,2,4]triazolo[1,5-a]pyridin-6-yl)amino)pyrimidin-4-yl)amino)piperidin-1-yl)pyridazine-3-carbonitrile]
15	> 300	–	CC(O)Cc1nc2cc(Nc3ncc(Cl)c(NC4CCN(c5ccc(C#N)nn5)CC4)n3)ccn2n1 (stereo not shown) [Example 56, 6-(4-((5-chloro-2-((2-(2-hydroxypropyl)-[1,2,4]triazolo[1,5-a]pyridin-7-yl)amino)pyrimidin-4-yl)amino)piperidin-1-yl)pyridazine-3-carbonitrile]
7	116	–	Cn1nnc2cc(Nc3ncc(Cl)c(NC4CCN(c5ccc(C#N)nn5)CC4)n3)ccc21 [Example 47, 6-(4-((5-chloro-2-((l-methyl-1H-benzo[d][1,2,3]triazol-5-yl)amino)pyrimidin-4-yl)amino)piperidin-1-yl)pyridazine-3-carbonitrile]
5	–	13	CC(C)(O)Cc1cn2cc(Nc3ncc(Cl)c(NC4CCN(c5ccc(C#N)cn5)CC4)n3)ccc2n1 [Example 73, 6-(4-((5-chloro-2-((2-(2-hydroxy-2-methylpropyl)imidazo[1,2-a]pyridin-6-yl)amino)pyrimidin-4-yl)amino)piperidin-1-yl)nicotinonitrile]
3	–	46	CCC1CN(c2ccc(C#N)cn2)CCC1Nc1nc(Nc2ccn3c(C)cnc3c2)ncc1Cl (stereo not shown) [Example 2, 6-(4-((5-chloro-2-((3-methylimidazo[1,2-a]pyridin-7-yl)amino)pyrimidin-4-yl)amino)-3-ethylpiperidin-1-yl)nicotinonitrile]
16	281	115	Cc1cnc2cc(Nc3ncc(Cl)c(NC4CCN(c5ccc(C#N)nn5)CC4)n3)ccn12 [Example 12, 6-(4-((5-chloro-2-((3-methylimidazo[1,2-a]pyridin-7-yl)amino)pyrimidin-4-yl)amino)piperidin-1-yl)pyridazine-3-carbonitrile]
1	119	–	CC(C)(O)c1nnc2cc(Nc3ncc(Cl)c(NC4CCN(c5ccc(C#N)cn5)CC4)n3)ccn12 [Example 40]
4	–	46	CC(C)(O)Cc1nnc2cc(Nc3ncc(Cl)c(NC4CCN(c5ccc(C#N)cn5)CC4)n3)ccn12 [Example 74, 6-(4-((5-chloro-2-((3-(2-hydroxy-2-methylpropyl)-[1,2,4]triazolo[4,3-a]pyridin-7-yl)amino)pyrimidin-4-yl)amino)piperidin-1-yl)nicotinonitrile]
5	708	–	CC(C)(O)c1nc2cc(Nc3ncc(Cl)c(NC4CCN(c5ccc(C#N)cn5)CC4)n3)ccn2n1 [Example 39, 6-(4-((5-chloro-2-((2-(2-hydroxypropan-2-yl)-[1,2,4]triazolo[1,5-a]pyridin-7-yl)amino)pyrimidin-4-yl)amino)piperidin-1-yl)nicotinonitrile]
0.7	315	–	Cc1nc2cc(Nc3ncc(Cl)c(NC4CCN(c5ccc(C#N)cn5)CC4)n3)ccc2n1C [Example 48, 6-(4-((5-chloro-2-((1,2-dimethyl-1H-benzo[d]imidazol-5-yl)amino)pyrimidin-4-yl)amino)piperidin-1-yl)nicotinonitrile]
7	662	–	Cc1nc2cc(Nc3ncc(Cl)c(NC4CCN(c5ccc(C#N)cn5)CC4)n3)ccn2n1 [Example 32, 6-(4-((5-chloro-2-((2-methyl-[1,2,4]triazolo[1,5-a]pyridin-7-yl)amino)pyrimidin-4-yl)amino)piperidin-1-yl)nicotinonitrile]
1	187	–	Cn1cnc2cc(Nc3ncc(Cl)c(NC4CCN(c5ccc(C#N)cn5)CC4)n3)ccc21 [Example 46, 6-(4-((5-chloro-2-((1-methyl-1H-benzo[d]imidazol-5-yl)amino)pyrimidin-4-yl)amino)piperidin-1-yl)nicotinonitrile]
